Test results: patent publication US20030131363A1, “Heme-regulated eukaryotic initiation factor 2 alpha kinase knockout mice and methods for use” (Massachusetts Institute of Technology, priority 2001, published 2003)

Assays:
[1] = tested on: HRI +/+ reticulocytes; assay: [35S]-methionine incorporation / protein (globin) synthesis in isolated intact reticulocytes, HRI +/+; assay type: cell-based, mouse
Protocol: (§1) Mice were injected with phenylhydrazine at 40 mg/kg on days 0, 1 and 3 to induce hemolysis, and the subsequent erythropoiesis and release of reticulocytes into the blood stream. Blood samples were collected by heart puncture on day 7 when the reticulocyte counts were 85-95%. Reticulocytes were washed twice with ice-cold phosphate-buffered saline supplemented with 5 mM glucose. For protein synthesis assays, reticulocytes were resuspended in DMEM (2×10^8 cells/ml) with 1/10 concentration of methionine plus 2% dialyzed fetal bovine serum and preincubated for 30 min at 37_C for recovery. […] Incorporation of the [^35S]-methionine in the globin chains and other proteins was analyzed by 15% SDS-PAGE, and subsequent transfer to nitrocellulose membranes. Protein synthesis in reticulocytes was quantitated by scintillation counting of the nitrocellulose strips containing globin chains. Phosphorylation of HRI and eIF2a in isolated reticulocytes were analyzed by western blot analysis following 7.5% and 12% SDS-PAGE respectively. […]
(§2) HRI−/− mice are viable and fertile without gross morphological abnormalities. […] The IF2Alpha kinase activity of HRI in reticulocyte lysates was determined using in vitro protein kinase assays. The extent of the eIF2a phosphorylation was determined by western-blot analysis using antibody specific to the phosphorylated eIF2a. […]

[2] = tested on: HRI−/− reticulocytes; assay: [35S]-methionine incorporation / protein (globin) synthesis in isolated intact reticulocytes, HRI−/−; assay type: cell-based, mouse
Protocol: as §1, §2

[3] = tested on: Wt mice; assay: Survival in phenylhydrazine-induced hemolysis, Wt mice; conditions: Wt mice with iron-deficiency, after two injections, 50 mg/Kg
Protocol: (§3) States of iron deficiency have been and remain very common in humans. Thus, exposure to situations that render RBCs more fragile may be often concurrent with iron-deficiency, such as in thalassemias, sickle cell disease, malaria and other infections, extreme climatic conditions, ingestion of natural toxins, heavy metals or drugs. […] Both Wt and HRI−/− mice were injected with phenylhydrazine at the dosages as indicated at Days 0, 1 and 3. The mice were observed daily. […] Six mice of each genotype were used for each dosage. […] The standard phenylhydrazine regime employs three injections of phenylhydrazine on days 0, 1 and 3.

[4] = tested on: HRI−/− mice; assay: Survival in phenylhydrazine-induced hemolysis, HRI−/− mice; conditions: iron-deficient HRI−/− mice, after two injections, 50 mg/Kg
Protocol: as §3

[5] = target: purified rabbit reticulocyte eIF-2 (alpha subunit as substrate), P83268
Chain of purified rabbit reticulocyte eIF-2 (alpha subunit as substrate), P83268 (P83268 whole entry, looked up, tested part not stated): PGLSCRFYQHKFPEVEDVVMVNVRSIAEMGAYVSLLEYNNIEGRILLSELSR

[6] = target: purified wheat germ eIF-2Alpha
[7] = target: T1, endogenous eIF2 of mouse reticulocyte lysates (alpha subunit as substrate), Q6ZWX6
T1 chain: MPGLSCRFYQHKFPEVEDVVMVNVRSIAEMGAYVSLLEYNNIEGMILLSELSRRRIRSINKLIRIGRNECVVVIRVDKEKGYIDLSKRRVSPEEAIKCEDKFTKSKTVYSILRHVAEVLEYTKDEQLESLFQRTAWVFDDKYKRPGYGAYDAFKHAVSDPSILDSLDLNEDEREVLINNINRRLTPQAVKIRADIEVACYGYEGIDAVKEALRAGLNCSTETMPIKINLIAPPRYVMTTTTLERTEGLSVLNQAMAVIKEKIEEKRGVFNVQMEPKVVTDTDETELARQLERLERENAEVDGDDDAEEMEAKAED

## hemin
[1]; +/+ reticulocytes, pre-treatment with 40_M hemin for 30 min prior to [35S]-methionine
  Incorporation of [35S]-methionine into globins: 208 % of control
[2]; hemin added
  Protein synthesis, effect of addition of hemin: not affected

## NNc1ccccc1 [phenylhydrazine]
[3]
  Survival: ~100%
[4]
  Mice died: 90%

## C[C@@H]1C[C@@H]([C@H](O)CC2CC(=O)NC(=O)C2)C(=O)[C@@H](C)C1 [cycloheximide]
[1]; Wt reticulocytes, cycloheximide (2 ìM per method)
  Protein synthesis, inhibition: inhibited equally well
[2]; cycloheximide (2 ìM per method)
  Protein synthesis, inhibition: inhibited equally well

B1: 90 kDa polypeptide expressed from rabbit HRI cDNA (heme-regulated eIF-2 alpha kinase), in vitro translation product (protein)
chain: MLGGSAGTRGGEAEGDGAGAVGAVAPPPAIDFPAEVSDPKYDESDVPAELQVLKEPLQQPAFPFAVANQLLLVSLLEHLSHVHEPNPLRSRQVFKLLCQTFIKMGLLSSFTCSDEFSSLRLHHNRAITHLMRSARERVRQDPCADNSHIQKIRSREVALEAQTSRYLNEFEELSILGKGGYGRVYKVRNKLDGQYYAIKKILIKGATKTDCMKVLREVKVLAGLQHPNIVGYHTAWIEHVHVHVQADRVPIQLPSLEVLSDQEEDRDQYGVKNDASSSSSIIFAEFSPEKEKSSDECAVESQNNKLVNYTTNLVVRDTGEFESSTERQENGSIVERQLLFGHNSDVEEDFTSAEESSEEDLSALRHTEVQYHLMLHIQMQLCELSLWDWIAERNRRSRECVDESACPYVMVSVATKIFQELVEGVFYIHNMGIVHRDLKPRNIFLHGPDQQVKIGDFGLACADIIQKNAARTSRNGERAPTHTSRVGTCLYASPEQLEGSEYDAKSDMYSVGVILLELFQPFGTEMERAEVLTGVRAGRIPDSLSKRCPAQAKYVQLLTRRNASQRPSALQLLQSELFQNSAHVNLTLQMKIIEQEREIEELKKQLSLLSQARGVRSDRRDGELPA
[5]
  eIF-2Alpha kinase activity (32P protein kinase assay, SDS-gel electrophoresis): translational products of HRI 2A and HRI 2B mRNAs have enhanced eIF-2Alpha kinase activity as compared to the control in the absence of added mRNA

B2: purified reticulocyte HRI (protein)
chain: MLGGSAGTRGGEAEGDGAGAVGAVAPPPAIDFPAEVSDPKYDESDVPAELQVLKEPLQQPAFPFAVANQLLLVSLLEHLSHVHEPNPLRSRQVFKLLCQTFIKMGLLSSFTCSDEFSSLRLHHNRAITHLMRSARERVRQDPCADNSHIQKIRSREVALEAQTSRYLNEFEELSILGKGGYGRVYKVRNKLDGQYYAIKKILIKGATKTDCMKVLREVKVLAGLQHPNIVGYHTAWIEHVHVHVQADRVPIQLPSLEVLSDQEEDRDQYGVKNDASSSSSIIFAEFSPEKEKSSDECAVESQNNKLVNYTTNLVVRDTGEFESSTERQENGSIVERQLLFGHNSDVEEDFTSAEESSEEDLSALRHTEVQYHLMLHIQMQLCELSLWDWIAERNRRSRECVDESACPYVMVSVATKIFQELVEGVFYIHNMGIVHRDLKPRNIFLHGPDQQVKIGDFGLACADIIQKNAARTSRNGERAPTHTSRVGTCLYASPEQLEGSEYDAKSDMYSVGVILLELFQPFGTEMERAEVLTGVRAGRIPDSLSKRCPAQAKYVQLLTRRNASQRPSALQLLQSELFQNSAHVNLTLQMKIIEQEREIEELKKQLSLLSQARGVRSDRRDGELPA
[6]
  phosphorylation of eIF-2Alpha (protein kinase assay): the purified reticulocyte HRI phosphorylates purified wheat germ eIF-2Alpha very inefficiently

B3: mouse HRI protein (heme-regulated eIF2 alpha kinase) in reticulocyte lysates (protein)
chain: MLGGSSVDGERDTDDDAAGAVAAPPAIDFPAEVSDPKYDESDVPAELQVLKEPLQQPTFPFLVANQLLLVSLLEHLSHVHEPNPLHSKQVFKLLCQTFIKMGLLSSFTCSDEFSSLRLHHNRAITHLMRSAKERVRQDPCQDNSYMQKIRSREIAFEAQTSRYLNEFEELAILGKGGYGRVYKVRNKLDGQHYAIKKILIKSATKTDCMKVLREVKVLAGLQHPNIVGYHTAWIEHVHVVQPQDRVPIQLPSLEVLSEQEGDRDQGGVKDNESSSSIVFAELTPEKEKPFGESEVKNENNNLVSYTANLVVRNSSESESSIELQEDGLTDLSVRPVVRHQLPLGHSSELEGNFTSTDESSEGNLNLLGQTEVRYHLMLHIQMQLCELSLWDWITERNKRSREYVDEAACPYVMASVATKIFQELVEGVFYIHNMGIVHRDLKPRNIFLHGPDQQVKIGDFGLACADIIQNADWTNRNGKGTRTHTSRVGTCLYASPEQLEGSQYDAKSDMYSLGVILLELFQPFGTEMERATVLTGVRTGRIPESLSKRCPVQAKYIQLLTGRNVSQRPSALQLLQSELFQTTGNVNLTLQMKIIEQEKEIEELKKQLSLLSQDRGLKR
[7]
  in vitro eIF2 Alpha phosphorylation in reticulocyte lysates with endogenous eIF2 as substrate: In vitro eIF2 Alpha phosphorylation occurred in reticulocyte lysates from +/+ mice ... little eIF2 phosphorylation was detected in the reticulocyte lysates of HRI-/- mice
